Test systems include HCT-116 colon; SF-268 CNS; OVCAR-3 ovarian; SK-MEL-2 melanoma; NCI-H522 lung; OVCAR-5 ovarian; IGROV1 ovarian; MOLT-4 leukemia; MCF7 breast; DU-145 prostate.
What all share (assay): DTP human tumour cell line panel, 48 h

Each structure is given as a SMILES string.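 Step 1: Grow cells in 96-well plates. Step 2: Expose to compound for 48 hours at 5 concentrations. Step 3: Interpolate endpoints linearly; if unreached, use highest concentration. GI50 = concentration required for 50% inhibition of growth. At the TGI there is no net growth.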

With `CC(=O)OC[C@]12CC[C@@H](C(=O)CBr)[C@@H]1[C@H]1CC[C@@H]3[C@@]4(C)CCCNC(C)(C)[C@@H]4CC[C@@]3(C)[C@]1(C)CC2`, the GI50 (as a rule, the concentration giving 50% growth inhibition) was 1.84 µM in the experiment with HCT-116 colon; 5.98 µM in the experiment with SF-268 CNS; 1.93 µM with OVCAR-3 ovarian; 6.03 µM in the experiment with SK-MEL-2 melanoma; 2.06 µM in the experiment on NCI-H522 lung; 13.5 µM with OVCAR-5 ovarian. Moreover, the GI50 in the experiment on IGROV1 ovarian is 1.83 µM; in the experiment on MOLT-4 leukemia, 2.03 µM; in the experiment with MCF7 breast, 2.27 µM; with DU-145 prostate, 4.1 µM. Also, the TGI (in general, the concentration giving total growth inhibition) with HCT-116 colon came out at 3.61 µM; in the experiment on SF-268 CNS, 23.9 µM; with OVCAR-3 ovarian it was 3.85 µM; in the experiment with SK-MEL-2 melanoma, 20.3 µM; with NCI-H522 lung, 4.6 µM; in the experiment with OVCAR-5 ovarian it was 26.6 µM. The TGI was determined as 3.76 µM with IGROV1 ovarian, 5.43 µM in the experiment with MOLT-4 leukemia, 6.21 µM in the experiment with MCF7 breast and 14.2 µM in the experiment on DU-145 prostate.
For the molecule `NC(=O)c1ccc(I)c(N=O)c1`, the GI50 was 18.6 µM with HCT-116 colon; 62.1 µM with SF-268 CNS; 27.4 µM in the experiment with OVCAR-3 ovarian; 31.3 µM in the experiment with SK-MEL-2 melanoma; 21.4 µM in the experiment with NCI-H522 lung; 71.9 µM in the experiment on OVCAR-5 ovarian. Besides, the GI50 with IGROV1 ovarian was 26.7 µM; in the experiment on MOLT-4 leukemia, 36.5 µM; in the experiment on MCF7 breast, 39.6 µM; in the experiment on DU-145 prostate, 43.7 µM. The TGI was 32.8 µM with HCT-116 colon; more than 100 µM in the experiment with SF-268 CNS; 71.5 µM with OVCAR-3 ovarian; 87.8 µM with SK-MEL-2 melanoma; 55.3 µM in the experiment on NCI-H522 lung; more than 100 µM with OVCAR-5 ovarian. The TGI is 86.4 µM in the experiment with IGROV1 ovarian, more than 100 µM in the experiment on MOLT-4 leukemia, more than 100 µM in the experiment on MCF7 breast and more than 100 µM with DU-145 prostate.
Take `Cc1ccc(C(CC(=O)c2ccccc2)C2C(=O)NC(=O)NC2=O)cc1` (stereo not given): the GI50 in the experiment with HCT-116 colon, in the experiment with SF-268 CNS, with OVCAR-3 ovarian, in the experiment with SK-MEL-2 melanoma, with NCI-H522 lung and with OVCAR-5 ovarian was more than 100 µM in each case. Further, the GI50 in the experiment on IGROV1 ovarian, with MOLT-4 leukemia, in the experiment with MCF7 breast and in the experiment with DU-145 prostate was more than 100 µM each time. Moreover, the TGI in the experiment on HCT-116 colon, in the experiment with SF-268 CNS, with OVCAR-3 ovarian, with SK-MEL-2 melanoma, with NCI-H522 lung and in the experiment on OVCAR-5 ovarian was more than 100 µM throughout. In addition, the TGI with IGROV1 ovarian, in the experiment on MOLT-4 leukemia, in the experiment with MCF7 breast and with DU-145 prostate was more than 100 µM each time.
Turning to `COc1ccc2c(=O)cc(-c3ccncc3)oc2c1OC`, the TGI was more than 100 µM in the experiment on HCT-116 colon; 91.7 µM with SF-268 CNS; 64.8 µM in the experiment on OVCAR-3 ovarian; 68.2 µM in the experiment on SK-MEL-2 melanoma; more than 100 µM with NCI-H522 lung; more than 100 µM in the experiment with OVCAR-5 ovarian. The TGI in the experiment on IGROV1 ovarian is 78.1 µM; in the experiment on MOLT-4 leukemia, 41.7 µM; with MCF7 breast, more than 100 µM; in the experiment with DU-145 prostate, more than 100 µM.
`O=c1oc(Cl)c(Cl)c2ccccc12`: the GI50 in the experiment with HCT-116 colon was 31.9 µM; with SF-268 CNS, 38.2 µM; with OVCAR-3 ovarian it was 11.7 µM; with SK-MEL-2 melanoma, 14.1 µM; in the experiment with NCI-H522 lung, more than 100 µM; in the experiment on OVCAR-5 ovarian, 18.7 µM. The GI50 in the experiment with IGROV1 ovarian is 23.2 µM; in the experiment with MOLT-4 leukemia it was 9.19 µM; in the experiment with MCF7 breast, 35.5 µM; in the experiment with DU-145 prostate it was 18.3 µM. In addition, the TGI was 71.8 µM with HCT-116 colon; more than 100 µM in the experiment on SF-268 CNS; 27.8 µM with OVCAR-3 ovarian; 44.1 µM in the experiment with SK-MEL-2 melanoma; more than 100 µM in the experiment with NCI-H522 lung; 57.1 µM in the experiment on OVCAR-5 ovarian. Besides, the TGI in the experiment on IGROV1 ovarian is 63.2 µM; in the experiment with MOLT-4 leukemia it was 78.2 µM; in the experiment with MCF7 breast, more than 100 µM; in the experiment on DU-145 prostate, 38.6 µM.
Take `CCCCC[C@H]1C/C=C2/C(=O)C=C[C@@H]2C/C=C\CCCC(=O)O[C@@H](CCCCC)C/C=C2/C(=O)C=C[C@@H]2C/C=C\CCCC(=O)O1`: the concentration for 50% growth inhibition (GI50) is 0.0896 µM in the experiment with HCT-116 colon; 0.442 µM with SF-268 CNS; 0.0955 µM in the experiment on OVCAR-3 ovarian; 0.385 µM in the experiment on SK-MEL-2 melanoma; 0.16 µM in the experiment on NCI-H522 lung; 0.566 µM with OVCAR-5 ovarian. Further, the GI50 in the experiment on IGROV1 ovarian was 0.123 µM; in the experiment on MOLT-4 leukemia, 0.0828 µM; in the experiment on MCF7 breast, 0.119 µM; with DU-145 prostate, 0.355 µM. For the same molecule, the TGI in the experiment on HCT-116 colon is 0.333 µM; with SF-268 CNS it was 1.75 µM; in the experiment on OVCAR-3 ovarian, 0.353 µM; in the experiment on SK-MEL-2 melanoma, 1.22 µM; in the experiment with NCI-H522 lung it was 0.655 µM; in the experiment with OVCAR-5 ovarian it was 1.31 µM. Besides, the TGI turned out to be 0.596 µM with IGROV1 ovarian, 0.898 µM in the experiment on MOLT-4 leukemia, 0.484 µM in the experiment on MCF7 breast and 1.34 µM in the experiment with DU-145 prostate.

Values taken from PubChem BioAssay (NCI).
